pEC50: −log10 of the molar value.

The term pEC50 denotes the EC50 on a negative log10 scale, so that one unit is a factor of ten.

Data set [1] has as its system Human immunodeficiency virus 1. Description: Antiviral activity against HIV1 infected in human U373-MAGI cells expressing CXCR4 assessed as inhibition of viral infection preincubated for 2 hrs prior to infection followed by compound wash out measured after 48 hrs by single round replication assay. The format is functional, organism-based. To be noted: for pEC50: Human immunodeficiency virus 1, U373-MAGI.

The nature of data set [2]: Selectivity index, ratio of TC50 for human U373-MAGI cells to EC50 for human U373-MAGI cells infected with HIV1. Format: toxicity, cell-based. Particulars: read-out: Selectivity Index.
Data set [3] is described as follows: Cytotoxicity against human U373-MAGI cells expressing CXCR4. The format is cell-based. Particulars: read-out: TC50 (the source's name).
Data set [4] deals with Human immunodeficiency virus 1. Description: Antiviral activity against HIV1 infected in human U373-MAGI cells expressing CXCR4 assessed as frequency of viral mutagenesis at 6 uM preincubated for 2 hrs prior to infection followed by compound wash out measured after 48 hrs by flow cytometry relative to control. The format is functional.
Data set [5] has as its system Human immunodeficiency virus 1. Description: Antiviral activity against HIV1 infected in human U373-MAGI cells expressing CXCR4 assessed as infected host cells at 6 uM preincubated for 2 hrs prior to infection followed by compound wash out measured after 48 hrs by single round replication assay. Format: functional.
Data set [6] concerns Human immunodeficiency virus 1. The experiment in a line: Antiviral activity against HIV1 infected in human U373-MAGI cells expressing CXCR4 assessed as frequency of viral mutagenesis at 30 uM preincubated for 2 hrs prior to infection followed by compound wash out measured after 48 hrs by flow cytometry relative to control. The format is functional. For orientation: In flow cytometry, cells or beads pass a laser one at a time.

Data set [7] relates to Human immunodeficiency virus 1. Description: Antiviral activity against HIV1 infected in human U373-MAGI cells expressing CXCR4 assessed as infected host cells at 30 uM preincubated for 2 hrs prior to infection followed by compound wash out measured after 48 hrs by single round replication assay. The format is functional.
Data set [8] concerns Human immunodeficiency virus 1. Description: Antiviral activity against HIV1 infected in human U373-MAGI cells expressing CXCR4 assessed as frequency of viral mutagenesis at 70 nM preincubated for 2 hrs prior to infection followed by compound wash out measured after 48 hrs by flow cytometry relative to control. The format is functional.
Data set [9] has as its system Human immunodeficiency virus 1. The experiment in a line: Antiviral activity against HIV1 infected in human U373-MAGI cells expressing CXCR4 assessed as infected host cells at 70 nM preincubated for 2 hrs prior to infection followed by compound wash out measured after 48 hrs by single round replication assay. The format is functional.
Data set [10] deals with Human immunodeficiency virus 1. The experiment in a line: Antiviral activity against HIV1 infected in human U373-MAGI cells expressing CXCR4 assessed as infected host cells at 20 uM preincubated for 2 hrs prior to infection followed by compound wash out post infection measured after 48 hrs by single round replication assay. Format: functional.
The subject of data set [11] is Human immunodeficiency virus 1. The experiment in a line: Antiviral activity against HIV1 infected in human U373-MAGI cells expressing CXCR4 assessed as frequency of viral mutagenesis at 20 uM preincubated for 2 hrs prior to infection followed by compound wash out measured after 48 hrs by flow cytometry relative to control. The format is functional.

As to `Cn1c(-c2ccc(O)cc2)ccc1-c1cc(O)cc(O)c1`, in data set [1], the negative logarithm of the EC50 (pEC50) was under 4.12.
As for `Oc1cc(O)cc(/C=C/c2ccc(O)c(O)c2)c1` [PICEATANNOL], the selectivity ratio in [2] was over 18.7. Besides, in [1], the Activity result is “Dose-dependent effect” and the negative logarithm of the EC50 (pEC50) was 4.67. For the same molecule, the CC50 in data set [3] was over 400 µM. In data set [4], the Ratio is given as 1.16. Also, the Activity in data set [5] is listed as 88%.
With `Oc1ccc(-c2c(-c3cc(O)cc(O)c3)oc3ccccc23)cc1`, the selectivity ratio in [2] came out at 2.4. In [1], the Activity result is “Dose-dependent effect” and the pEC50 was 4.46. Also, in data set [3], the CC50 was found to be 84.8 µM.
`Oc1cc(O)cc(-c2ccc3cc(O)ccc3c2)c1`: the pEC50 in data set [1] is under 4.12.
On to `Oc1cc(O)cc(-c2ccc3cnccc3c2)c1`, for which the pEC50 in data set [1] is under 4.12.
`Oc1ccc(-c2sc3ccccc3c2-c2cc(O)cc(O)c2)cc1`: the Ratio in [6] is 1.08. The selectivity ratio in [2] was found to be 2.6. In data set [1], the Activity result was “Dose-dependent effect” and the pEC50 was 4.35. The CC50 in data set [3] came out at 118 µM. Further, the Activity in [7] was found to be 99%.
Take `Oc1ccc(-c2ncc(-c3cc(O)cc(O)c3)cn2)cc1`: the negative-log EC50 (pEC50) in data set [1] is under 4.12.
As to `O=C(/C=C/c1ccc(O)cc1)c1cc(O)cc(O)c1`, the pEC50 in data set [1] is under 4.12.
With `Oc1ccc(-c2oc3ccccc3c2-c2cc(O)cc(O)c2)cc1`, the selectivity ratio in data set [2] was determined as 1.5. Moreover, in data set [1], the Activity result was “Dose-dependent effect” and the pEC50 is 4.19. Further, the CC50 in [3] was determined as 108 µM.
Turning to `Oc1ccc(-c2cnc(-c3cc(O)cc(O)c3)nc2)cc1`, the negative logarithm of the EC50 (pEC50) in data set [1] is under 4.12.
In the case of `Oc1ccc(-c2cc(-c3cc(O)cc(O)c3)on2)cc1`, in data set [1], the negative-log EC50 (pEC50) was under 4.12.
On to `Oc1ccc(-c2ccc(-c3cc(O)cc(O)c3)cc2)cc1`, for which, in data set [2], the selectivity ratio turned out to be 20.3. In addition, in data set [1], the Activity result is “Dose-dependent effect” and the pEC50 is 5.06. Also, the CC50 in [3] stood at 179 µM. Further, the Ratio in data set [4] turned out to be 1.1. For the same molecule, the Activity in [5] was determined as 96%.
As to `Oc1ccc(-c2c(-c3cc(O)cc(O)c3)sc3ccccc23)cc1`, the selectivity ratio in data set [2] worked out at 3.8. In data set [1], the Activity entry was “Dose-dependent effect” and the negative-log EC50 (pEC50) was 4.46. The CC50 in [3] was 131 µM.
As for `Oc1ccc(-n2cc(-c3cc(O)cc(O)c3)nn2)cc1`, in data set [1], the negative-log EC50 (pEC50) was under 4.12.
Consider `Oc1cc(O)cc(-c2ccc(-c3ccncc3)cc2)c1`, for which the pEC50 in data set [1] is under 4.00.
In the case of `Nc1ncn([C@H]2C[C@H](O)[C@@H](CO)O2)c(=O)n1` [DECITABINE], the Ratio in data set [8] amounted to 1.26. Besides, in data set [9], the Activity is recorded as 93%.
Regarding `Oc1ccc(/C=C/c2cc(O)cc(O)c2)cc1` [RESVERATROL], in [1], the Activity entry is “Dose-dependent effect” and the negative-log EC50 (pEC50) is under 4.12. Moreover, the CC50 in data set [3] was over 300 µM. In data set [10], the Activity was 91%. For the same molecule, the Ratio in data set [11] amounted to 1.08.

(Values after ChEMBL document CHEMBL2163261, “Anti-HIV-1 activity of resveratrol derivatives and synergistic inhibition of HIV-1 by the combination of resveratrol and decitabine” (Bioorg Med Chem Lett, 2012).)
